Measurements from paper PMC5159850, “An adenylyl cyclase with a phosphodiesterase domain in basal plants with a motile sperm system” (Scientific Reports, 2016).

Target: T1, His-MpCAPE-PDE (Marchantia polymorpha, UniProt A0A1V1FXL5)
T1 construct: gene CAPE; N-terminal PDE domain 101-479 of 1610-residue MpCAPE; 6xHis and T7 tags (pET28a); E. coli Rosetta2(DE3)pLysS host; partially purified on Ni column
Test: reverse-phase HPLC of AMP or GMP formed, […] nm
Type: biochemical
Conditions: 0.5 mM cGMP, 0.5 mM MgCl2, MnCl2 or FeCl2, Tris-HCl pH 8.0, 37 °C, 20 min; partially purified protein

T1 sequence (A0A1V1FXL5 entry or part of it): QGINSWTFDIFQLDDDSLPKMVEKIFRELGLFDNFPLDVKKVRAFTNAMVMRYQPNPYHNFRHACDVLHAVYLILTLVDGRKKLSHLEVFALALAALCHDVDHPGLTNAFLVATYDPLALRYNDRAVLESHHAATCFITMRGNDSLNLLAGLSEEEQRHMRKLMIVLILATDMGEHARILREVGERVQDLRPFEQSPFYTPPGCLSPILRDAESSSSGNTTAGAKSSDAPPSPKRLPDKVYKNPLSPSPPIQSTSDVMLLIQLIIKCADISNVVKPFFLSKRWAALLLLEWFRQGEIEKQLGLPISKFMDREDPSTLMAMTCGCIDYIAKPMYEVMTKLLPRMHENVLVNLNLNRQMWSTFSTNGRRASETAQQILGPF

Which “reverse-phase HPLC of AMP or GMP formed, 259 nm” value does the source give for `Nc1nc2c(ncn2[C@@H]2O[C@@H]3COP(=O)(O)O[C@H]3[C@H]2O)c(=O)[nH]1` [cGMP] here?
The value was “The result showed that His-MpCAPE-PDE hydrolyzed both cAMP and cGMP”.
